Measured values: patent publication US20160256515A1, “COMPOSITIONS AND METHODS FOR PREDICTION AND TREATMENT OF HUMAN CYTOMEGALOVIRUS INFECTIONS” (THE JOHNS HOPKINS UNIVERSITY, priority 2013, published 2016)
Read-outs that look alike come from different tables or passages of the source.

Assays:
NOD2 mRNA = assay type: cell-based, human; settings: non-infected HFFs, MDP 10 μg/ml
human CMV (HCMV) = experiment: CMV plaque numbers in human fibroblasts after pre-treatment; assay type: cell-based, human cytomegalovirus; settings: pre-treatment of human fibroblasts followed by CMV infection
IFN-β = IFN-β response (qPCR, ELISA) after pretreatment and CMV infection; assay type: cell-based, human
Source text: RNA isolation and real time quantitative reverse transcriptase (qRT) PCR: Total RNA was isolated from cultured cells using RNeasy Mini kit (Qiagen, Georgetown, Md.) according to manufacturer's instructions. RevertAid first strand cDNA synthesis kit (Fermentas life sciences, Cromwell Park, Md.) was used to synthesize first strand cDNA from total RNA using oligo-dT primers. Negative reverse-transcriptase (−RT) reactions were included to ensure the specificity of qRT-PCR reactions. Synthesis of first strand cDNA from mRNA template was carried out at 42° C. for 1 h. Quantitative RT-PCR (qRT-PCR) was performed using specific primers and SYBER green (Fermentas life science) with two-step cycling protocol (95° C. for 15 s, 60° C. for 1 min). Reactions were performed in triplicates and GAPDH was used as internal control. mRNA levels in HCMV-infected cells were normalized to the mRNA produced in non-infected HFFs in addition to the internal normalization of each sample to GAPDH. The primers and gene targets appear in Table 1.
ELISA: Human interferon β (IFN-β) specific ELISA kit (PBL Interferon Source) was used to measure levels of secreted IFN-β from HFF-control and HFF-NOD2 overexpressing cells according to manufacturer's instructions.

SMILES | induction of NOD2 expression (NOD2 mRNA; 12 h) | induction of NOD2 expression (NOD2 mRNA; 72 h) [fold] | plaque numbers (human CMV (HCMV)) | interferon response (IFN-β) (IFN-β; pretreatment) | mRNA and protein expression of IFN-β (IFN-β; pretreatment followed by CMV infection, qPCR and ELISA) | IFN-β responses in NOD2 KD cells (IFN-β; treatment in NOD2 KD cells)
CC(=O)N[C@H]1C(O)O[C@H](CO)[C@@H](O)[C@@H]1O[C@H](C)C(=O)N[C@@H](C)C(=O)N[C@H](CCC(=O)O)C(N)=O (mixture of isomers) [MDP, muramyl dipeptide] | two fold | 1400 |  |  |  | 
C[C@H](N)C(=O)N[C@H](CCC(=O)NC(CCCC(N)C(=O)O)C(=O)O)C(=O)O (stereo partly drawn) [tri-DAP, L-Ala-γ-D-Glu-mDAP] |  |  | significant reduction | enhanced | increased | can initiate independent IFN-β responses
